From patent US9199943B2, “2-(poly-substituted aryl)-6-amino-5-halo-4-pyrimidinecarboxylic acids and their use as herbicides” (Dow AgroSciences, LLC., priority 2006, dated 2015) come the findings set out here.

One data set deals with GALAP = Galium aparine. The data set is described as follows: Postemergence herbicidal activity in cereal crops, Galium aparine. It is filed as in vivo. Particulars: post-emergence, 480 h, post-emergent, after 20-22 days; for pest or weed control at 70 g/ha: 70 g ai/ha; for pest or weed control at 35 g/ha: 35 g ai/ha; for pest or weed control at 17.5 g/ha: 17.5 g ai/ha. As for the experimental part:
Seeds of the desired test plant species were planted in Sun Gro MetroMix® 306 planting mixture, which typically has a pH of 6.0 to 6.8 and an organic matter content of about 30 percent, in plastic pots with a surface area of 103.2 square centimeters. When required to ensure good germination and healthy plants, a fungicide treatment and/or other chemical or physical treatment was applied. The plants were grown for 7-36 days in a greenhouse with an approximate 14 hour photoperiod which was maintained at about 18° C. during the day and 17° C. during the night. Nutrients and water were added on a regular basis and supplemental lighting was provided with overhead metal halide 1000-Watt lamps as necessary. The plants were employed for testing when they reached the second or third true leaf stage.
A weighed amount, determined by the highest rate to be tested, of each test compound was placed in a 25 mL glass vial and was dissolved in 8 mL of a 97:3 v/v mixture of acetone and DMSO to obtain concentrated stock solutions. […] The concentrated stock solutions obtained were diluted with 16 mL of an aqueous mixture containing acetone, water, isopropyl alcohol, DMSO, Agri-dex crop oil concentrate, and Triton X-77 surfactant in a 64.7:26.0:6.7:2.0:0.7:0.01 v/v ratio to obtain spray solutions containing the highest application rates. Additional application rates were obtained by serial dilution of 12 mL of the high rate solution into a solution containing 4 mL of 97:3 v/v mixture of acetone and DMSO and 8 mL of an aqueous mixture containing acetone, water, isopropyl alcohol, DMSO, Agri-dex crop oil concentrate, and Triton X-77 surfactant in a 48.5:39.0:10.0:1.5:1.0:0.02 v/v ratio to obtain ½×, ¼×, ⅛× and 1/16× rates of the high rate. Compound requirements are based upon a 12 mL application volume at a rate of 187 L/ha. Formulated compounds were applied to the plant material with an overhead Mandel track sprayer equipped with a 8002E nozzles calibrated to deliver 187 L/ha over an application area of 0.503 square meters at a spray height of 18 inches (43 cm) above average plant canopy height. Control plants were sprayed in the same manner with the blank.
The treated plants and control plants were placed in a greenhouse as described above and watered by sub-irrigation to prevent wash-off of the test compounds. After 20-22 days, the condition of the test plants as compared with that of the untreated plants was determined visually and scored on a scale of 0 to 100 percent where 0 corresponds to no injury and 100 corresponds to complete kill.

Data set [1] has as its system ORYSA = rice (Orysa sativa var. Japonica). The data set is described as follows: Herbicidal activity in transplanted paddy rice, rice. Type of data set: in vivo. The note with it: Oryza sativa, 480 h, water-injected paddy, rice (crop), after 20-22 days; for pest or weed control at 17.5 g/ha: 17.5 g ai/ha; for pest or weed control at 140 g/ha: 140 g ai/ha; for pest or weed control at 35 g/ha: 35 g ai/ha; for pest or weed control at 70 g/ha: 70 g ai/ha. On the procedure:
Weed seeds or nutlets of the desired test plant species were planted in puddled soil (mud) prepared by mixing a non-sterilized mineral soil (28 percent silt, 18 percent clay, and 54 percent sand, with a pH of about 7.3 to 7.8 and an organic matter content of about 1.0 percent) and water at a ratio of 100 kg of soil to 19 L of water. The prepared mud was dispensed in 250 mL aliquots into 480 mL non-perforated plastic pots with a surface area of 91.6 square centimeters leaving a headspace of 3 centimeters in each pot. Rice seeds were planted in Sun Gro MetroMix® 306 planting mixture, which typically has a pH of 6.0 to 6.8 and an organic matter content of about 30 percent, in plastic plug trays. Seedlings at the second or third leaf stage of growth were transplanted into 650 mL of mud contained in 960 mL non-perforated plastic pots with a surface area of 91.6 square centimeters 4 days prior to herbicide application. The paddy was created by filling the 3 centimeter headspace of the pots with water. When required to ensure good germination and healthy plants, a fungicide treatment and/or other chemical or physical treatment was applied. The plants were grown for 4-14 days in a greenhouse with an approximate 14 hour photoperiod which was maintained at about 29° C. during the day and 26° C. during the night. Nutrients were added as Osmocote (17:6:10, N:P:K+minor nutrients) at 2 g (grams) per cup. Water was added on a regular basis to maintain the paddy flood, and supplemental lighting was provided with overhead metal halide 1000-Watt lamps as necessary. The plants were employed for testing when they reached the second or third true leaf stage. A weighed amount, determined by the highest rate to be tested, of each test compound was placed in a 120 mL glass vial and was dissolved in 20 mL of acetone to obtain concentrated stock solutions. […] The concentrated stock solutions obtained were diluted with 20 mL of an aqueous mixture containing 0.01% Tween 20 (v/v). Application rates of ½×, ¼×, ⅛× and 1/16× of the high rate were obtained by injecting an appropriate amount of the stock solution into the aqueous layer of the paddy. Control plants were treated in the same manner with the solvent blank. The treated plants and control plants were placed in a greenhouse as described above and water was added as needed to maintain a paddy flood. After 20-22 days, the condition of the test plants as compared with that of the untreated plants was determined visually and scored on a scale of 0 to 100 percent where 0 corresponds to no injury and 100 corresponds to complete kill.

In the case of `COC(=O)c1nc(-c2ccc(Cl)c(OC)c2Cl)nc(N)c1Cl` [Compound 6, 6-Amino-5-chloro-2-(2,4-dichloro-3-methoxyphenyl)pyrimidine-4-carboxylic acid methyl ester], the pest or weed control at 70 g/ha in the data set on GALAP = Galium aparine turned out to be 85%. In data set [1], this compound had a pest or weed control at 17.5 g/ha of 0%.

For the compound `COC(=O)c1nc(-c2ccc(Cl)c(OCC(F)F)c2F)nc(N)c1Cl` [Compound 10, 6-Amino-5-chloro-2-[4-chloro-3-(2,2-difluoroethoxy)-2-fluorophenyl]-pyrimidine-4-carboxylic acid methyl ester], the melting point fell in the range of 139 to 141 °C. The same compound gave a pest or weed control at 70 g/ha with GALAP = Galium aparine of 65%. The same compound came in with a pest or weed control at 140 g/ha in data set [1] of 0%.

Consider `COC(=O)c1nc(-c2ccc(Cl)c(N(C)C)c2F)nc(N)c1Cl` [Compound 8, 6-Amino-5-chloro-2-(4-chloro-3-dimethylamino-2-fluorophenyl)pyrimidine-4-carboxylic acid methyl ester], for which the melting point is 143 to 144 °C. Moreover, the pest or weed control at 35 g/ha with GALAP = Galium aparine was determined as 70%. Moreover, the pest or weed control at 35 g/ha in data set [1] is 0%.

As to `COC(=O)c1nc(-c2c(F)cc(Cl)c(OC)c2F)nc(N)c1Cl` [Compound 2, 6-amino-5-chloro-2-(4-chloro-2,6-difluoro-3-methoxy-phenyl)pyrimidine-4-carboxylic acid methyl ester], the pest or weed control at 35 g/ha with GALAP = Galium aparine turned out to be 95%. The compound also had a pest or weed control at 70 g/ha in data set [1] of 0%.

The compound `COC(=O)c1nc(-c2ccc3c(c2F)OCO3)nc(N)c1Cl` [Compound 9, 6-Amino-5-chloro-2-(4-fluorobenzo[1,3]dioxol-5-yl)pyrimidine-4-carboxylic acid methyl ester] displayed a pest or weed control at 70 g/ha in the data set with GALAP = Galium aparine of 90%. For the same compound, the pest or weed control at 35 g/ha in data set [1] was 0%.

As to `COC(=O)c1nc(-c2ccc(Cl)c(OC)c2F)nc(N)c1Cl` [Compound 3, 6-amino-5-chloro-2-(4-chloro-2-fluoro-3-methoxyphenyl)-pyrimidine-4-carboxylic acid methyl ester], the pest or weed control at 17.5 g/ha in the data set on GALAP = Galium aparine came out at 95%; in data set [1], 0%.

In the case of `COC(=O)c1nc(-c2ccc(Cl)c(OC)c2F)nc(N)c1Br` [Compound 13, 6-amino-5-bromo-2-(4-chloro-2-fluoro-3-methoxyphenyl)-pyrimidine-4-carboxylic acid methyl ester], the pest or weed control at 17.5 g/ha in the data set with GALAP = Galium aparine was 90%. In data set [1], this compound returned a pest or weed control at 70 g/ha of 0%.

With `CCOc1c(Cl)ccc(-c2nc(N)c(Cl)c(C(=O)OC)n2)c1F` [Compound 1, 6-amino-5-chloro-2-(4-chloro-3-ethoxy-2-fluorophenyl)-pyrimidine-4-carboxylic acid methyl ester], the pest or weed control at 35 g/ha in the data set on GALAP = Galium aparine stood at 99%. Besides, the pest or weed control at 17.5 g/ha in data set [1] worked out at 5%.

Compound `COC(=O)c1nc(-c2ccc(Cl)c(C(F)F)c2F)nc(N)c1Cl` [Compound 7, 6-Amino-5-chloro-2-(4-chloro-3-difluoromethyl-2-fluorophenyl)pyrimidine-4-carboxylic acid methyl ester] displayed a melting point of 155 to 157 °C. The same compound registered a pest or weed control at 17.5 g/ha in the data set on GALAP = Galium aparine of 60%. The compound further came in with a pest or weed control at 140 g/ha in data set [1] of 0%.
